According to US20060160146A1, “Method of screening compound affecting amyloid beta production” (OTSUKA PHARMACEUTICAL CO., LTD., priority 2002, published 2006):

Key:
[1] = system: α-secretase; experiment: α-secretase cleavage product (sAPPα) in culture supernatant of COS7 cells transiently expressing mutated APP, Western blotting; format: cell-based, monkey; set-up: key to α-cleavage: ↓: indicates a reduced amount of secretase cleavage product; →: indicates an unchanged amount of each secretase cleavage product; ↑: indicates an increased amount of secretase cleavage product; 0: indicates no detection of each secretase cleavage product; conditions: for α-cleavage: amount of sAPPα versus wild-type APP, 48 hours after transfection; for amount of α-secretase cleavage product: in words, versus wild-type APP
From the text: (§1) BE11-hAPP695 was used as a starting material which was produced by adding a BE11 epitope tag immediately after a signal peptide of the N-terminus of a human-type APP gene (FIG. 2) and incorporating it into a vector. With respect to the amino acid at the N-treminus of the α-secretase cleavage site of APP695 (lysine at position 16 of β-amyloid) or the amino acid at the C-terminus (leucine at position 17 of β-amyloid), tryptophan was introduced into position 16 and alanine, glutamic acid, lysine, proline, glutamine, and threonine were introduced into position 17 by the site-directed mutagenesis (QuickChange, Stratagene). A construct was produced in which these mutated APPs and wild-type APPs are respectively incorporated into a pCIneo mammalian expression vector (Promega), and the construct was then transfected to a COS7 cell by a liposome method (DOTAP, Boeringer Manheim), to achieve transient expression. Forty-eight hours after transfection, the cell and culture supernatant were collected, and the expressed proteins and the processing were analyzed by 8% SDS-PAGE/Western blotting. The expression of a cell membrane-associated full-length APP confirmed using the monoclonal antibody (Mab BE11) against BE11. The expression level was standardized, and then α-secretase cleavage products (sAPPα) and β-secretase cleavage products (sAPPβ) which were secreted in the culture supernatant (medium) were detected and quantified using a specific antibody against the respective products.

[2] = system: β-secretase; experiment: β-secretase cleavage product (sAPPβ) in culture supernatant of COS7 cells transiently expressing mutated APP, Western blotting; format: cell-based, monkey; set-up: key to β-cleavage: ↓: indicates a reduced amount of secretase cleavage product; →: indicates an unchanged amount of each secretase cleavage product; ↑: indicates an increased amount of secretase cleavage product; 0: indicates no detection of each secretase cleavage product; conditions: for β-cleavage: amount of sAPPβ versus wild-type APP, 48 hours after transfection
From the text: as §1

Substance | α-cleavage [1] | amount of α-secretase cleavage product [1] | β-cleavage [2] | amount of β-secretase cleavage product ([2]; in words, versus wild-type APP)
Glu (position 17): human APP695 modified protein, leucine at position 17 of β-amyloid replaced with glutamic acid | 0 | No α-secretase cleavage product was detected | → | –
Trp (position 16): human APP695 modified protein, lysine at position 16 of β-amyloid replaced with tryptophan | ↓↓ | sharply decreased | → | –
Pro (position 17): human APP695 modified protein, leucine at position 17 of β-amyloid replaced with proline | 0 | No α-secretase cleavage product was detected | → | –
Ala (position 17): human APP695 modified protein, leucine at position 17 of β-amyloid replaced with alanine | ↓ | decreased | → | –
Lys (position 17): human APP695 modified protein, leucine at position 17 of β-amyloid replaced with lysine | ↓↓ | decreased | ↑ | slightly increased
